Reference: patent US20250152599A1 (priority 2020, published 2025)
Where two headings read alike, the source gives them in different places.

Key:
in vitro [1] = settings: human
HCoV 229E [2] = assay: microbe, parasite or virus in culture; settings: unidentified human coronavirus
PI4KIIIα = PI4KIIIα (Homo sapiens, UniProt P42356); settings: read-out: IC50 of inhibitory effect on PI4KIIIα; cited from earlier work
HCoV 229E [3] = test system: HCoV 229E
novel coronavirus = assay: Inhibitory effect of PI0101 on the novel coronavirus, 96-well plate, 76 hours; format: cell-based, SARS-CoV-2; settings: Severe acute respiratory syndrome coronavirus 2, novel coronavirus 100 TCID50/well
in vitro [4] = assay: in vitro
Vero cells = settings: for CC10: African green monkey
[5] = test system: novel coronavirus (SARS-CoV-2); assay: microbe, parasite or virus in culture; format: cell-based; settings: for EC50: Severe acute respiratory syndrome coronavirus 2, Vero, read-out: EC50 for inhibiting the novel coronavirus
MRC5 cells = settings: human
in vitro [6] = settings: African green monkey

PI4KIIIα, sequence (P42356 whole entry): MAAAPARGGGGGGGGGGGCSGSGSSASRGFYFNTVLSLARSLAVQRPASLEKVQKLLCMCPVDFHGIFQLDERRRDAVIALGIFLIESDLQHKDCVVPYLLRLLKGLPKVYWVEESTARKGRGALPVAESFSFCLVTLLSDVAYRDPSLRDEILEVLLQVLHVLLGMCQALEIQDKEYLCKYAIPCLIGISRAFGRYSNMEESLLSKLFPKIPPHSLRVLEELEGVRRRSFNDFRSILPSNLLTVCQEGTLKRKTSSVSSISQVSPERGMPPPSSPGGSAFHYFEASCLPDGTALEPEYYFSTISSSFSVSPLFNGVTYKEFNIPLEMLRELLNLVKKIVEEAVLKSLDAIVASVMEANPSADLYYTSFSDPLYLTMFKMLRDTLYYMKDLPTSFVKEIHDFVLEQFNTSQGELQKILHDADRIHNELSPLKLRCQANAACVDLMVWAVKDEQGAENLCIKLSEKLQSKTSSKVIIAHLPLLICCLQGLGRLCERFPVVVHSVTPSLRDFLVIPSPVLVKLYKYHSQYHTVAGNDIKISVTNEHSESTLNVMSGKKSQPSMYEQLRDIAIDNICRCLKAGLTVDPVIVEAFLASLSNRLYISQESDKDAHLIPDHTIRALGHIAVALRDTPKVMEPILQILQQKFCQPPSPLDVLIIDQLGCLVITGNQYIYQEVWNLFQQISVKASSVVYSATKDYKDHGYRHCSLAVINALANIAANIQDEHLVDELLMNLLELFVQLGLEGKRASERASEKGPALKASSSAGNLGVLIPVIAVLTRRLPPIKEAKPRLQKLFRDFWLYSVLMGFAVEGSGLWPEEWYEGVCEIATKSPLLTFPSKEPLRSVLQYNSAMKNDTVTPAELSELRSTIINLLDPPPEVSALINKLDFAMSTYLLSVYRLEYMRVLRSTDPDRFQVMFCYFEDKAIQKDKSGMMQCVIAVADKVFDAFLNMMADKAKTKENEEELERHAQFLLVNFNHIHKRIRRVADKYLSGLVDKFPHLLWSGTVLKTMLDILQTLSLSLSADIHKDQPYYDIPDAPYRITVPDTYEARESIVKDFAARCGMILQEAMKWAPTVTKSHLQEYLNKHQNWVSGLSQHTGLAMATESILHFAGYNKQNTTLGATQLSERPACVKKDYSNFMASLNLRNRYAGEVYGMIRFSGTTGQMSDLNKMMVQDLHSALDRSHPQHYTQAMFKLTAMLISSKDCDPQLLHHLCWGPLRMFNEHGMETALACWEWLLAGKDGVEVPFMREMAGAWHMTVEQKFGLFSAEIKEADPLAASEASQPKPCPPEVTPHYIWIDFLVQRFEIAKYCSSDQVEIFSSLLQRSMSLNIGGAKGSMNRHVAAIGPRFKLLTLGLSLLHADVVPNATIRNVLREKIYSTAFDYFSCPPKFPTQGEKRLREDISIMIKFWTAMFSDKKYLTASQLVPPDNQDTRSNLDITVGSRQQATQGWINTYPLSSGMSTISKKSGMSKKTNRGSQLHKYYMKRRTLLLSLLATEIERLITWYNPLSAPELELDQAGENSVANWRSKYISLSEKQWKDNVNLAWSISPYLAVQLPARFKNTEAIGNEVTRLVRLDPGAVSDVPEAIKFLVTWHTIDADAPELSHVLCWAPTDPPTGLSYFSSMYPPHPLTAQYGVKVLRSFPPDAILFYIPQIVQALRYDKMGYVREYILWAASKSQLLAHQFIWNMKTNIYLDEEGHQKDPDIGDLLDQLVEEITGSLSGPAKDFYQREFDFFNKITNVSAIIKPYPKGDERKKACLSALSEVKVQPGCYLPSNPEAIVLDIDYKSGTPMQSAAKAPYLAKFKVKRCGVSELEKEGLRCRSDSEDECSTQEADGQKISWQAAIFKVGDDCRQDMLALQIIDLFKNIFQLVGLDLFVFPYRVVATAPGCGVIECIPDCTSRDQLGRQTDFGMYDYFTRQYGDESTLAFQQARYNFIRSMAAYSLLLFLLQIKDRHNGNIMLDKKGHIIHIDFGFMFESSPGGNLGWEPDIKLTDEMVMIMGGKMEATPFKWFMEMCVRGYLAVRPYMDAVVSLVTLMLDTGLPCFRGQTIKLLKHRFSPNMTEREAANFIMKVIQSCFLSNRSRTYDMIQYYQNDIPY

Structure (SMILES): O=[As]c1ccc(NC(=O)CCc2ccccc2)cc1 (stereo not drawn) [YL-05]
- CC50 (in vitro [1]): > 0.8 µM
- EC50 (HCoV 229E [2]; MRC5, 72 h): > 0.2 µM

Structure (SMILES): COc1ccc2c(O[C@@H]3C[C@H]4C(=O)N[C@]5(C(=O)NS(=O)(=O)C6CC6)C[C@H]5/C=C\CCCCN(C)C(=O)[C@@H]4C3)cc(-c3nc(C(C)C)cs3)nc2c1C [PI0101, Simeprevir]
- IC50 (PI4KIIIα): 0.2 µM
- CC50 (in vitro [1]): 8.46 µM
- SI (CC50/EC50) (HCoV 229E [3]; the second test): 2.48
- EC50 (novel coronavirus): 3.85 µM
- CC50 (in vitro [4]): > 10 µM
- EC50 (HCoV 229E [2]; MRC5, 72 h): 3.41 µM

Structure (SMILES): CC(=O)Nc1nc(C)c(-c2ccc(Cl)c(S(=O)(=O)NCCO)c2)s1 [PIK-93]
- toxic effect on Vero cells (Vero cells): no significant toxic effect
- inhibitory effect on the novel coronavirus [5]: no significant inhibitory effect

Structure (SMILES): O=[As]c1ccc(NS(=O)(=O)c2ccc(C(F)(F)F)cc2)cc1 (stereo not drawn) [YL-11]
- CC50 (MRC5 cells): 6.37 µM
- EC50 (HCoV 229E [3]): 2.1 µM
- SI (CC50/EC50) (HCoV 229E [3]): 3.03

Structure (SMILES): CCC(CC)COC(=O)[C@H](C)N[P@](=O)(OC[C@H]1O[C@@](C#N)(c2ccc3c(N)ncnn23)[C@H](O)[C@@H]1O)Oc1ccccc1 [Remdesivir]
- CC50 (MRC5 cells): 30.7 µM
- CC50 (in vitro [6]): 208 µM
- viability (in vitro [6]): > 90%
- CC10 (Vero cells): 55 µM
- SI (CC50/EC50) (HCoV 229E [3]; the first test): >3785.01
- SI (CC50/EC50) (HCoV 229E [3]; the second test): 2338.60
- EC50 [5]: 0.52 µM
- EC50 (HCoV 229E [2]; MRC5): 0.0264 µM

Structure (SMILES): CCN(CC)CCCC(C)Nc1ccnc2cc(Cl)ccc12 (stereo not drawn) [Chloroquine phosphate]
- CC10 (Vero cells): 120 µM
- EC50 [5]: 50 µM

Structure (SMILES): O=[As]c1ccc(NS(=O)(=O)c2ccc(F)cc2)cc1 (stereo not drawn) [YL-09]
- CC50 (MRC5 cells): 13.9 µM

Structure (SMILES): COc1ccc(S(=O)(=O)Nc2ccc([As]=O)cc2)cc1 (stereo not drawn) [YL-10]
- CC50 (MRC5 cells): 14 µM
- EC50 (HCoV 229E [3]): 3.95 µM
- SI (CC50/EC50) (HCoV 229E [3]): 3.55
